Laboratory results: PMC4223017, “Structural Model of the hUbA1-UbcH10 Quaternary Complex: In Silico and Experimental Analysis of the Protein-Protein Interactions between E1, E2 and Ubiquitin” (PLoS ONE, 2014)
“Also recorded” adds a separate entry of the source. Values belong to the molecule of their own block, whether it stands above or below them. Residues, ends and D or L forms follow the SMILES beside them. *: point of attachment. Biotin = O=C1N[C@H]2[C@H](CS[C@H]2CCCCC(=O)*)N1; Ahx = NCCCCCC(=O)O

How the values were obtained:
GST-UbcH10 [1] = target: T1, GST-UbcH10 (Homo sapiens, UniProt O00762); experiment: ELISA binding of biotinylated peptides to coated GST-UbcH10; conditions: for binding to UbcH10, in words: ELISA on recombinant GST-UbcH10, biotinylated peptides; for Kd / KD (µM): ELISA, wells coated overnight at 4°C with 100 µg/ml GST-UbcH10 in PBS 1X, 1 mM TCEP, biotinylated peptides at 2.2, 11, 22, 44, 108 µM in PBS 1X (1 mM TCEP for U1 and ScrU1), streptavidin-HRP, OPD, read at 490 nm, GraphPad Prism
T1 construct: made in house; host or cells: E. coli BL21 (DE3) RP
T1 sequence (O00762 1-179): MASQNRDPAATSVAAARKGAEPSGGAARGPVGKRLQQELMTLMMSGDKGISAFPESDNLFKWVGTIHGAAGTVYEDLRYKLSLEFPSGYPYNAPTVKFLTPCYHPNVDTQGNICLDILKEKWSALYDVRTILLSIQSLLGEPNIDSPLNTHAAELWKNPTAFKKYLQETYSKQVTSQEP
Protocol: The PCR product was cloned into pGEX-4T1 expression vector (GE Healthcare), leading to a protein with a cleavable N-terminal GST tag (GST-UbcH10). E. coli BL21 (DE3) RP strain was transformed with the recombinant plasmid for GST-UbcH10. Overnight cultures were used to inoculate 500 ml LB medium containing 50 µg/ml ampicillin, and protein induction was performed by the addition of 1 mM IPTG at 22°C when an OD600 value of 0.7 was reached. After approximately 16 h the cells were harvested and the proteins were isolated by sonicating cell pellets resuspended in 30 ml PBS1X in the presence of an EDTA free protease inhibitor cocktail (Roche Diagnostics). The crude cell extract was cleared by centrifugation at 18000 rpm and the supernatant was loaded onto a 1 ml GST-trap column connected to AKTA FPLC system (GE-Healthcare) equilibrated with binding buffer PBS1X. After washing with ten volumes of binding buffer, a single elution step was performed with 50 mM TrisHCl, 10 mM reduced glutathione. The fractions containing GST-UbcH10 were pooled and extensively dialyzed against PBS1X at 4°C. The homogeneity of the protein was tested by SDS–PAGE and mass spectrometry.
Wells were coated overnight at 4°C with 100 µg/ml GST-UbcH10 in PBS 1X, 1 mM TCEP, in the presence of an EDTA free protease inhibitor cocktail (Roche Diagnostics). Binding step was performed with different concentrations of biotinylated peptides L1, L2, ScrL2, U1, ScrU1, S2 (2.2, 11, 22, 44, 108 µM) in PBS 1X (with 1 mM TCEP for U1 and ScrU1). A blocking solution 1% BSA in PBS 1X, 0.05% Tween-20 was used. Washes were executed with PBS 1X, 0.05% Tween-20. To verify the interaction a 1∶10000 dilution of horseradish peroxidase-conjugated streptavidin (Sigma Aldrich) in 0.3% BSA, PBS 1X was incubated for 1 hour. The colorimetric reaction was carried out with SIGMA-FAST OPD reagent (Sigma Aldrich), according to the manufacturer's instructions. Finally, readings were performed at 490 nm on a Model680 MicroplateReader (Bio-Rad, Hercules, CA-USA), and data were recorded by Microplate Manager 5.2 program and elaborated by GraphPad Prism program. Negative control experiments with the fusion tag GST in coating were performed in the same conditions described above.
On the basis of the 3D model of the quaternary complex, we have designed six peptides as molecular probes in order to calibrate their ability to interfere the binding of UbcH10. This strategy was motivated by two main reasons. First, the identification of short peptides that mediate protein-protein interaction seemed a priori effective for disrupting the protein-protein recognition and binding. While other strategies, i.e. introduction of specific mutations, may also be envisaged, it is unclear whether single-point mutants might lead to a significant destabilization of the complex or even to impede the formation of the quaternary complex. Second, since our ultimate goal is the design of compounds that might disrupt the ubiquitilation process, testing a series of suitably chosen short peptides represents a valuable proof-of-concept for supporting the potential therapeutic effect of peptidomimetics. Specifically, the peptides were designed to examine the capability of hUbA1 stretches that contribute to the protein-protein interface with UbcH10 (Figure S7). In particular, we have designed two peptides per interface, which will be denoted S for SCCH region, L for cross loop, and U for UFD (Table 4). In the UFD region peptides U1 and U2 were selected to test the relevance of the acidic residues in mediating the binding of the UbcH10 H1 helix. […] Finally, peptides L1 and L2 were chosen to explore the role of the cross loop region in assisting the interaction with UbcH10. All the peptides were synthesized as biotinylated derivatives by solid phase method and purified by RP-HPLC. Unfortunately, S1 and U2 were insoluble and so not testable in binding assays. […]

[2] = Solubility of the synthesized peptides (testability in binding assays); assay type: physicochemical; conditions: for Solubility: biotinylated peptide, not testable in binding assays; for solubility, in words: biotinylated peptides
Source text: On the basis of the 3D model of the quaternary complex, we have designed six peptides as molecular probes in order to calibrate their ability to interfere the binding of UbcH10. This strategy was motivated by two main reasons. First, the identification of short peptides that mediate protein-protein interaction seemed a priori effective for disrupting the protein-protein recognition and binding. While other strategies, i.e. introduction of specific mutations, may also be envisaged, it is unclear whether single-point mutants might lead to a significant destabilization of the complex or even to impede the formation of the quaternary complex. Second, since our ultimate goal is the design of compounds that might disrupt the ubiquitilation process, testing a series of suitably chosen short peptides represents a valuable proof-of-concept for supporting the potential therapeutic effect of peptidomimetics. Specifically, the peptides were designed to examine the capability of hUbA1 stretches that contribute to the protein-protein interface with UbcH10 (Figure S7). In particular, we have designed two peptides per interface, which will be denoted S for SCCH region, L for cross loop, and U for UFD (Table 4). In the UFD region peptides U1 and U2 were selected to test the relevance of the acidic residues in mediating the binding of the UbcH10 H1 helix. […] Finally, peptides L1 and L2 were chosen to explore the role of the cross loop region in assisting the interaction with UbcH10. All the peptides were synthesized as biotinylated derivatives by solid phase method and purified by RP-HPLC. Unfortunately, S1 and U2 were insoluble and so not testable in binding assays. The ability of the soluble peptides to bind recombinant GST-UbcH10 was checked by ELISA, utilizing GST as control (data not shown).

GST-UbcH10 [3] = target: T2, GST-UbcH10 (UniProt O00762 1-179); experiment: ELISA; wells coated overnight at 4°C with 100 µg/ml GST-UbcH10 in PBS, 1 mM TCEP; biotinylated peptides at 2.2, 11, 22, 44, 108 µM in PBS (1 mM TCEP for U1 and ScrU1); detection with streptavidin-HRP, reading at 490 nm; apparent KD; conditions: both partners purified
T2 construct: UbcH10, a Ubiquitin Conjugation Enzyme (E2); PCR product cloned into pGEX-4T1; The GST tag is cleavable but the fusion GST-UbcH10 was coated on the wells; PDB 1I7K (used only for modelling) lacks the first 30 residues and has Ser114; nothing says that the ELISA construct has these limits; also called E2; recombinant GST-UbcH10; source: E. coli BL21 (DE3) RP, purified (GST-trap column, dialysed …)
T2 sequence (looked up): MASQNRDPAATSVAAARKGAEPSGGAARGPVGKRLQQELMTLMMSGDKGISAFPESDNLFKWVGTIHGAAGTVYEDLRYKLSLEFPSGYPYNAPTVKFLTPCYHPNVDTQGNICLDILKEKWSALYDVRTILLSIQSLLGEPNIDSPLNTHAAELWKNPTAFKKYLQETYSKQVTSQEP

binding to UbcH10, in words (GST-UbcH10 [1]): very poor binding | Kd (GST-UbcH10 [1]): > 80 µM
Molecule: C[C@@H](O)[C@H](NC(=O)[C@H](CCCCN)NC(=O)[C@H](CO)NC(=O)[C@@H]1CCCN1C(=O)[C@H](CC(=O)O)NC(=O)[C@H](CO)NC(=O)CCCCCNC(=O)CCCC[C@@H]1SC[C@@H]2NC(=O)N[C@@H]21)C(=O)N[C@@H](CO)C(=O)N[C@@H](CCC(=O)O)C(=O)N[C@@H](Cc1ccc(O)cc1)C(=O)N[C@@H](CCC(N)=O)C(=O)N1CCC[C@H]1C(=O)N[C@@H](CO)C(=O)N[C@@H](CCC(=O)O)C(N)=O [ScrL2] ({Biotin-Ahx}-SDPSKTSEYQPSE-NH2)

binding to UbcH10, in words (GST-UbcH10 [1]): very poor binding | Kd (GST-UbcH10 [1]): > 100 µM
Molecule: CC(C)C[C@H](NC(=O)[C@H](CCC(=O)O)NC(=O)CCCCCNC(=O)CCCC[C@@H]1SC[C@@H]2NC(=O)N[C@@H]21)C(=O)N[C@@H](CC(N)=O)C(=O)N[C@@H](CS)C(=O)N[C@@H](CC(=O)O)C(=O)N[C@H](C(=O)N[C@@H](CCC(=O)O)C(=O)N[C@H](C(=O)N[C@@H](CCC(=O)O)C(=O)NCC(=O)N[C@@H](CO)C(=O)N[C@@H](CC(=O)O)C(=O)N[C@@H](CS)C(N)=O)C(C)C)C(C)C [ScrU1] ({Biotin-Ahx}-ELNCDVEVEGSDC-NH2)

Solubility [2]: Not soluble | solubility, in words [2]: insoluble
Molecule: IHVSDQELQSA [S1, peptide from hUbA1 SCCH region (Cys-cap), residues 807-817, biotinylated derivative]

Solubility [2]: Not soluble | solubility, in words [2]: insoluble; also recorded: low solubility
Molecule: LELCCNDESGEDV [U2, peptide from hUbA1 UFD region, residues 1036-1048, biotinylated derivative]

KD (µM) (GST-UbcH10 [1]): No binding
Molecule: RDEFEGLFKQPAEN [S2, peptide corresponding to helix H19 in the hUbA1 SCCH region, residues 649-662, designed as negative control]

binding to UbcH10, in words (GST-UbcH10 [1]): low affinity | KD (µM) (GST-UbcH10 [1]): No binding
Molecule: SQDPPEKSIPI [L1, peptide from hUbA1 cross loop, residues 621-631, biotinylated derivative]

Kd (GST-UbcH10 [3]): 20 µM
B1: L2 peptide (hUbA1 cross loop, 615-627) (peptide)
peptide: {Biotin-Ahx}-TESYSSSQDPPEK-NH2
SMILES: C[C@@H](O)[C@H](NC(=O)CCCCCNC(=O)CCCC[C@@H]1SC[C@@H]2NC(=O)N[C@@H]21)C(=O)N[C@@H](CCC(=O)O)C(=O)N[C@@H](CO)C(=O)N[C@@H](Cc1ccc(O)cc1)C(=O)N[C@@H](CO)C(=O)N[C@@H](CO)C(=O)N[C@@H](CO)C(=O)N[C@@H](CCC(N)=O)C(=O)N[C@@H](CC(=O)O)C(=O)N1CCC[C@H]1C(=O)N1CCC[C@H]1C(=O)N[C@@H](CCC(=O)O)C(=O)N[C@@H](CCCCN)C(N)=O
notes: human UbA1 (E1), cross loop region, residues 615-627; source: synthetic peptide (Fmoc solid phase, RP-HPLC purified)

Kd (GST-UbcH10 [3]): > 100 µM
B2: U1-scrambled peptide (peptide)
peptide: {Biotin-Ahx}-ELNCDVEVEGSDC-NH2
modifications: cysteine pairing not given here
notes: scrambled order of the residues of peptide U1; also called ScrU1; source: synthetic peptide (Fmoc solid phase, RP-HPLC purified)

Kd (GST-UbcH10 [3]): 10 µM
B3: U1 peptide (hUbA1 UFD region, 1038-1050) (peptide)
peptide: {Biotin-Ahx}-LCCNDESGEDVEV-NH2
modifications: cysteine pairing not given here
notes: human UbA1 (E1), UFD region, residues 1038-1050; source: synthetic peptide (Fmoc solid phase, RP-HPLC purified)

Kd (GST-UbcH10 [3]): > 80 µM
B4: L2-scrambled peptide (peptide)
peptide: {Biotin-Ahx}-SDPSKTSEYQPSE-NH2
SMILES: C[C@@H](O)[C@H](NC(=O)[C@H](CCCCN)NC(=O)[C@H](CO)NC(=O)[C@@H]1CCCN1C(=O)[C@H](CC(=O)O)NC(=O)[C@H](CO)NC(=O)CCCCCNC(=O)CCCC[C@@H]1SC[C@@H]2NC(=O)N[C@@H]21)C(=O)N[C@@H](CO)C(=O)N[C@@H](CCC(=O)O)C(=O)N[C@@H](Cc1ccc(O)cc1)C(=O)N[C@@H](CCC(N)=O)C(=O)N1CCC[C@H]1C(=O)N[C@@H](CO)C(=O)N[C@@H](CCC(=O)O)C(N)=O
notes: scrambled order of the residues of peptide L2; also called ScrL2; source: synthetic peptide (Fmoc solid phase, RP-HPLC purified)
